Data: BindingDB's records for doi:10.7270/Q2ZC817P (The Scripps Research Institute Molecular Screening Center, 2007)
Structures can show the parent of a compound that is named as a salt.

The molecules below were run against Sphingosine 1-phosphate receptor 1 (Homo sapiens, UniProt P21453) (assay: potentiators of S1P1 agonist response, dose response, cell-based, potentiator mode, 60K MLSMR set (AID 466)). Conditions: not given.
Sphingosine 1-phosphate receptor 1, sequence (P21453 whole entry): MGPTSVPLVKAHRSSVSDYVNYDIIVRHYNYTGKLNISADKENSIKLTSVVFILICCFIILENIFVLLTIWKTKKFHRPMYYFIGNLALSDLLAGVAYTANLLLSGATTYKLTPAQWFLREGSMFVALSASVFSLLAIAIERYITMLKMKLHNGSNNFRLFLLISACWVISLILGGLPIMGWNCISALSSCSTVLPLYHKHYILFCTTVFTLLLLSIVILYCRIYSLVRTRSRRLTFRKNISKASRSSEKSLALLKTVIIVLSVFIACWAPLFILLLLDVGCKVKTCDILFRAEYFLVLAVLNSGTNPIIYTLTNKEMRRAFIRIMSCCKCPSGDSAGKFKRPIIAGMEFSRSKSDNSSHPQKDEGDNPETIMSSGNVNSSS

Row | SMILES | EC50 [µM]
1 | Fc1ccc2[nH]c3c(N4CCN(Cc5ccc6c(c5)OCO6)CC4)ncnc3c2c1 [4-[4-(1,3-benzodioxol-5-ylmethyl)-1-piperazinyl]-8-fluoro-5H-pyrimido[5,4-b]indole] | 2
2 | COc1cccc(N2CCN(c3ncnc4c3[nH]c3ccccc34)CC2C)c1 (stereo unspecified) [4-[4-(3-methoxyphenyl)-3-methyl-1-piperazinyl]-5H-pyrimido[5,4-b]indole] | 3.57
3 | Clc1ccc(OCCN2CCN(c3ncnc4sccc34)CC2)cc1 [4-[4-[2-(4-chloranylphenoxy)ethyl]piperazin-1-yl]thieno[2,3-d]pyrimidine] | 0.108
4 | CCOc1ccc(-c2nc(-c3ccncc3)no2)cc1OCC [4-[5-(3,4-diethoxyphenyl)-1,2,4-oxadiazol-3-yl]pyridine] | 0.226
5 | Cc1ccc(C(C)C)c(OCc2nc(-c3nonc3N)no2)c1 [4-[5-[(5-methyl-2-propan-2-yl-phenoxy)methyl]-1,2,4-oxadiazol-3-yl]-1,2,5-oxadiazol-3-amine] | 1.12
6 | COC(=O)c1ccc(C(c2c(N)n(CC(C)C)c(=O)[nH]c2=O)N2CCN(c3ccccc3)CC2)cc1 (stereo unspecified) [4-[[6-amino-1-(2-methylpropyl)-2,4-dioxo-5-pyrimidinyl]-(4-phenyl-1-piperazinyl)methyl]benzoic acid methyl ester] | > 95
7 | CCN(CC)c1ccc2cc(NC(=O)CCC(=O)O)c(=O)oc2c1 [4-[[7-(diethylamino)-2-keto-chromen-3-yl]amino]-4-keto-butyric acid] | 8.31
8 | CC(=O)c1c(C)[nH]c(C(=O)OCCCCN2C(=O)c3ccccc3C2=O)c1C [4-acetyl-3,5-dimethyl-1H-pyrrole-2-carboxylic acid 4-(1,3-dioxo-2-isoindolyl)butyl ester] | 2.1
9 | Nc1nonc1C(=O)NCCNCc1cc(Br)ccc1OCc1ccccc1F [4-amino-N-[2-[[5-bromo-2-(2-fluorobenzyl)oxy-benzyl]amino]ethyl]furazan-3-carboxamide;hydrochloride] | 8.9
10 | Nc1nonc1C(=O)NCCNCc1cc(Br)ccc1OCc1ccc(F)cc1 [4-amino-N-[2-[[5-bromo-2-(4-fluorobenzyl)oxy-benzyl]amino]ethyl]furazan-3-carboxamide;hydrochloride] | 7.81
11 | CCCCOc1ncnc2c1[nH]c1ccc(F)cc12 [4-butoxy-8-fluoranyl-5H-pyrimido[5,4-b]indole] | 3.07
12 | CCCCOc1ccc(S(=O)(=O)Nc2cccnc2)cc1 [4-butoxy-N-(3-pyridinyl)benzenesulfonamide] | 8.55

Other lines, results leading:

Row | EC50 [µM] | SMILES
13 | > 95 | Cc1sc2ncnc(Sc3nnnn3-c3ccccc3)c2c1C [5,6-dimethyl-4-(1-phenyltetrazol-5-yl)sulfanylthieno[2,3-d]pyrimidine]
14 | 2.66 | c1ccc(C(Cc2nc(-c3cccnc3)no2)c2ccccc2)cc1 [5-(2,2-diphenylethyl)-3-(3-pyridinyl)-1,2,4-oxadiazole]
15 | 1.02 | COc1ccc(-c2noc(-c3cccc(OC)c3OC)n2)cc1OC [5-(2,3-dimethoxyphenyl)-3-(3,4-dimethoxyphenyl)-1,2,4-oxadiazole]
16 | 6.17 | COc1ccc(-c2noc(-c3ccccc3F)n2)cc1 [5-(2-fluorophenyl)-3-(4-methoxyphenyl)-1,2,4-oxadiazole]
17 | 3.29 | O=C(Nc1ccc(O)cc1)c1cc2n(n1)C(C(F)(F)F)CC(c1ccco1)N2 (stereo unspecified) [5-(2-furanyl)-N-(4-hydroxyphenyl)-7-(trifluoromethyl)-1,5,6,7-tetrahydropyrazolo[1,5-a]pyrimidine-2-carboxamide]
18 | 0.999 | COc1ccccc1-c1nc(-c2cccc(C)c2)no1 [5-(2-methoxyphenyl)-3-(3-methylphenyl)-1,2,4-oxadiazole]
19 | 5.75 | COc1ccccc1-c1cc(C(=O)Nc2ccccc2SC)no1 [5-(2-methoxyphenyl)-N-(2-methylsulfanylphenyl)-1,2-oxazole-3-carboxamide]
20 | 0.732 | CCOc1ccc(-c2nc(-c3ccc(OC)cc3)no2)cc1OCC [5-(3,4-Diethoxy-phenyl)-3-(4-methoxy-phenyl)-[1,2,4]oxadiazole]
21 | 0.107 | CCOc1ccc(-c2nc(-c3ccccc3)no2)cc1OCC [5-(3,4-diethoxyphenyl)-3-phenyl-1,2,4-oxadiazole]
22 | 0.139 | COc1ccc(-c2nc(-c3ccccc3OC)no2)cc1OC [5-(3,4-dimethoxyphenyl)-3-(2-methoxyphenyl)-1,2,4-oxadiazole]
23 | 1.07 | COc1ccc(-c2nc(-c3cccc(C)c3)no2)cc1OC [5-(3,4-dimethoxyphenyl)-3-(3-methylphenyl)-1,2,4-oxadiazole]
24 | 1.2 | COc1ccc(-c2nc(-c3ccncc3)no2)cc1OC [5-(3,4-dimethoxyphenyl)-3-(4-pyridyl)-1,2,4-oxadiazole]
25 | 2.55 | COc1ccccc1OCc1nc(C#N)c(N2CC(C)CC(C)C2)o1 (stereo unspecified) [5-(3,5-dimethyl-1-piperidinyl)-2-[(2-methoxyphenoxy)methyl]-4-oxazolecarbonitrile]
26 | 1.44 | Cc1cc(C)cc(-c2nc(-c3ccncc3)no2)c1 [5-(3,5-dimethylphenyl)-3-(4-pyridyl)-1,2,4-oxadiazole]
27 | 68.9 | CCOc1ccc(C2CC(c3cccc(OC)c3OC)n3nnnc3N2)cc1Cl (stereo unspecified) [5-(3-chloranyl-4-ethoxy-phenyl)-7-(2,3-dimethoxyphenyl)-1,5,6,7-tetrahydro-[1,2,3,4]tetrazolo[1,5-a]pyrimidine]
28 | > 95 | CC(C)N1C(=O)CCC1C(=O)N1CCC(Cc2ccccc2)CC1 (stereo unspecified) [5-(4-benzylpiperidine-1-carbonyl)-1-isopropyl-2-pyrrolidone]
29 | 3.77 | COc1ccccc1-n1nnnc1S(=O)(=O)Cc1ccc(Cl)cc1 [5-(4-chlorobenzyl)sulfonyl-1-(2-methoxyphenyl)tetrazole]
30 | 4.41 | CCc1ccc(-c2nc(-c3ccncc3)no2)cc1 [5-(4-ethylphenyl)-3-(4-pyridyl)-1,2,4-oxadiazole]
31 | 0.778 | O=C(Nc1ccccc1C(F)(F)F)c1cc(-c2ccc(O)cc2)on1 [5-(4-hydroxyphenyl)-N-[2-(trifluoromethyl)phenyl]isoxazole-3-carboxamide]
32 | 1.91 | c1ccc(-c2ccc(-c3nc(-c4cccnc4)no3)cc2)cc1 [5-(4-phenylphenyl)-3-(3-pyridinyl)-1,2,4-oxadiazole]
33 | 8.31 | c1ccc(-c2ccc(-c3nc(-c4ccncc4)no3)cc2)cc1 [5-(4-phenylphenyl)-3-(4-pyridyl)-1,2,4-oxadiazole]
34 | 0.908 | O=C(Nc1nc2c(s1)CCCC2)c1cc2n(n1)C(C(F)(F)F)CC(C1CC1)N2 (stereo unspecified) [5-Cyclopropyl-7-trifluoromethyl-4,5,6,7-tetrahydro-pyrazolo[1,5-a]pyrimidine-2-carboxylic acid (4,5,6,7-tetrahydro-benzothiazol-2-yl)-amide]

Same assay, conditions: inactive by the depositor's call

Row | SMILES | EC50 [µM]
35 | CCOC(=O)c1ccc(NC(=O)CCc2nc(-c3ccc(Cl)cc3)no2)cc1 [4-[3-[3-(4-chlorophenyl)-1,2,4-oxadiazol-5-yl]propanoylamino]benzoic acid ethyl ester] | 13
36 | Oc1ccc(N2CCN(c3ncnc4sc5c(c34)CCC5)CC2)cc1 [4-[4-(7,8-dihydro-6H-cyclopenta[4,5]thieno[1,2-c]pyrimidin-1-yl)-1-piperazinyl]phenol] | 10.6
37 | Cn1nc(CC(=O)Nc2ccc(N3CCN(C(=O)OC(C)(C)C)CC3)cc2)c2ccccc2c1=O [4-[4-[[2-(3-methyl-4-oxo-1-phthalazinyl)-1-oxoethyl]amino]phenyl]-1-piperazinecarboxylic acid tert-butyl ester] | 14.4
38 | CCOc1ccc(Cc2nc(-c3nonc3N)no2)cc1OCC [4-[5-(3,4-diethoxybenzyl)-1,2,4-oxadiazol-3-yl]-1,2,5-oxadiazol-3-amine] | 12.6
39 | c1ccc(N2CCN(Cc3ccnc4ccccc34)CC2)cc1 [4-[(4-phenyl-1-piperazinyl)methyl]quinoline] | 10.6
40 | CCOC(=O)N1CCC(NC(=O)C2CCCN(Cc3nc(-c4cccc(Cl)c4)oc3C)C2)CC1 (stereo unspecified) [4-[[1-[[2-(3-chlorophenyl)-5-methyl-oxazol-4-yl]methyl]nipecotoyl]amino]piperidine-1-carboxylic acid ethyl ester] | 20.1
41 | CN(CC1CCCO1)S(=O)(=O)c1ccc(C(=O)Nc2nc(-c3ccccn3)cs2)cc1 (stereo unspecified) [4-[methyl(2-oxolanylmethyl)sulfamoyl]-N-[4-(2-pyridinyl)-2-thiazolyl]benzamide] | 24
42 | Cc1ccc2nc(C(F)(F)F)c(C#N)c(N)c2c1 [4-amino-6-methyl-2-(trifluoromethyl)-3-quinolinecarbonitrile] | 12
43 | CCCCOc1ccc(S(=O)(=O)Nc2cc(OC)ccc2OC)cc1 [4-butoxy-N-(2,5-dimethoxyphenyl)benzenesulfonamide] | 12.1

Further lines, results first:

Row | EC50 [µM] | SMILES
44 | 83.1 | Cc1ccc(S(=O)(=O)n2nc(C)c(Br)c2C)c(C)c1C [4-bromanyl-3,5-dimethyl-1-(2,3,4-trimethylphenyl)sulfonyl-pyrazole]
45 | 44.2 | CCN(CC)S(=O)(=O)c1cc(C(=O)Nc2ccncc2)ccc1Cl [4-chloranyl-3-(diethylsulfamoyl)-N-pyridin-4-yl-benzamide]
46 | 10.7 | Cc1ccc(S(=O)(=O)Nc2ccc3ncccc3c2)cc1 [4-methyl-N-(6-quinolinyl)benzenesulfonamide]
47 | 15.4 | Cc1nc2ncnn2c(N2CCN(c3cccc(C(F)(F)F)c3)CC2)c1C [5,6-Dimethyl-7-[4-(3-trifluoromethyl-phenyl)-piperazin-1-yl]-[1,2,4]triazolo[1,5-a]pyrimidine]
48 | 57.7 | COc1ccccc1-c1cc(C(=O)Nc2cc(C)nn2-c2ccccc2)no1 [5-(2-methoxyphenyl)-N-(3-methyl-1-phenyl-1H-pyrazol-5-yl)isoxazole-3-carboxamide]
49 | 18.8 | COc1ccc(-c2nc(-c3cccc(C(F)(F)F)c3)no2)cc1OC [5-(3,4-dimethoxyphenyl)-3-[3-(trifluoromethyl)phenyl]-1,2,4-oxadiazole]
50 | 16 | COc1cccc(-c2cc(C(=O)Nc3ccccc3SC)no2)c1 [5-(3-methoxyphenyl)-N-(2-methylsulfanylphenyl)-1,2-oxazole-3-carboxamide]
51 | 11.8 | Cc1cccc(-c2nc(C#N)c(NC3CCCCC3)o2)c1 [5-(cyclohexylamino)-2-(3-methylphenyl)-1,3-oxazole-4-carbonitrile]
